{"source": "patent US5227485A", "about": "“Pyrazolo[3,4-d]pyrimidines with adenosine-like binding affinities” (Griffith University, priority 1990, dated 1993)", "key": {"A2 receptor": {"molecular_target": "A2 receptor (Rattus norvegicus, UniProt P30543)", "sequence (P30543 whole entry)": "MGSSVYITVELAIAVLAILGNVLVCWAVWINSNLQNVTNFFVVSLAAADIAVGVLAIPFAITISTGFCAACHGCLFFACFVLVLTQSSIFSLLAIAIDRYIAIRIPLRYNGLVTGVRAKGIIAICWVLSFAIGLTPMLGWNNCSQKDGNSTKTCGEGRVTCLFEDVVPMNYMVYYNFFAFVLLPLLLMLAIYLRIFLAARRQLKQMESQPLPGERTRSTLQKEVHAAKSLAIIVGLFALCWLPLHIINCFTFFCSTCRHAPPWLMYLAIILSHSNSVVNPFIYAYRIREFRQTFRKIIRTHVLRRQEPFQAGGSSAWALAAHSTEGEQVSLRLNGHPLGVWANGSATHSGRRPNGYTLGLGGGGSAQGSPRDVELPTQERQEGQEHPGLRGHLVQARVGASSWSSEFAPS", "assay": "IC50 at the A2 receptor (^3 H-CGS21680)", "format": "binding"}, "A1 receptor": {"molecular_target": "T1, A1 receptor (Rattus norvegicus, UniProt P25099)", "T1 sequence (P25099 1-326)": "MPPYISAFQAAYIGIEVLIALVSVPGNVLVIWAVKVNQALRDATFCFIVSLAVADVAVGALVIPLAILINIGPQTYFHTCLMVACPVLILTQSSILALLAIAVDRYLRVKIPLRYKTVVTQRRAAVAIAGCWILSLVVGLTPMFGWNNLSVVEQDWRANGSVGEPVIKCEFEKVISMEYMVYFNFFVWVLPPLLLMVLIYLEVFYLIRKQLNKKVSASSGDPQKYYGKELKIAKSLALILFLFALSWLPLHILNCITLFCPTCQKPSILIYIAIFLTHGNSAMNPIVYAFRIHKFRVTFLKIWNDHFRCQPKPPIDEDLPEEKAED", "assay": "IC50 at the A1 receptor (^3 H-PIA)", "format": "binding", "conditions": "for pIC50: ^3 H-PIA"}, "A2 surface receptors": {"system": "A2 surface receptors", "conditions": "cited from earlier work; for agonism at the A2 site: in words"}, "[1]": {"conditions": "because of antagonism of the effects of extracellular adenosine; cited from earlier work"}, "A1 surface receptors": {"system": "A1 surface receptors", "conditions": "both sites, in words; cited from earlier work"}, "rats": {"system": "rats", "conditions": "NECA vs R-PIA; cited from earlier work"}, "[2]": {"conditions": "in vivo; cited from earlier work"}, "animals": {"system": "animals", "conditions": "cited from earlier work"}, "[3]": {"system": "noradrenaline-contracted guinea pig aorta", "conditions": "by interactions with A2 receptors; cited from earlier work"}, "[4]": {"system": "coronary vascular smooth muscle", "conditions": "cited from earlier work"}, "A2 site": {"system": "A2 site", "conditions": "cited from earlier work"}, "cerebellar cyclic GMP": {"system": "cerebellar cyclic GMP", "conditions": "in vivo; cited from earlier work"}, "adenosine deaminase": {"system": "adenosine deaminase", "conditions": "cited from earlier work"}, "benzodiazepine receptors": {"molecular_target": "benzodiazepine receptors", "conditions": "cited from earlier work"}, "mice": {"system": "mice", "conditions": "oral or intraperitoneal; cited from earlier work"}, "A1 site": {"system": "A1 site", "conditions": "cited from earlier work"}, "mouse spinal cord": {"system": "mouse spinal cord", "conditions": "at doses in which neuromuscular junction transmission was unaltered; cited from earlier work"}, "[5]": {"conditions": "in vivo; rats (printed \"rates\"); cited from earlier work"}, "[6]": {"system": "adenosine uptake system (nucleoside transporter)", "conditions": "cited from earlier work"}}, "note": "pIC50, pKd, pKi: −log10 of the molar value.", "data": [{"compound": "CCNC(=O)C(C)Sc1nc(SC(C)C(=O)NCC)c2cnn(-c3ccccc3)c2n1", "note": "(stereo not drawn) [Compound 6, 4,6-Bis-α-N-ethylcarbamoylethylthio-1-phenylpyrazolo[3,4-d]pyrimidine]", "values": [{"measurement": "pIC50", "setting": "A2 receptor", "result": 6.24}, {"measurement": "pIC50", "setting": "A1 receptor", "result": 6.24}]}, {"compound": "C[C@H](Cc1ccccc1)Nc1ncnc2c1ncn2[C@@H]1O[C@H](CO)[C@@H](O)[C@H]1O", "note": "[PIA]", "values": [{"measurement": "agonism at the A2 site", "setting": "A2 surface receptors", "result": "reduced agonistic activity"}]}, {"compound": "Cn1c(=O)c2[nH]cnc2n(C)c1=O", "note": "[theophylline]", "values": [{"measurement": "central stimulant action", "setting": "[1]", "result": "central stimulant action"}]}, {"compound": "CCNC(=O)[C@H]1O[C@@H](n2cnc3c(N)ncnc32)[C@H](O)[C@@H]1O", "note": "[NECA, 5'-N-ethyl carboxamidoadenosine]", "values": [{"measurement": "agonist potency at A2 surface receptors", "setting": "A2 surface receptors; adenylate cyclase systems, NECA vs R-PIA", "result": "more potent agonist at A2 surface receptors than is R-N^6 -phenylisopropyl adenosine (R-PIA)"}, {"measurement": "agonism at the A2 site", "setting": "A2 surface receptors", "result": "non-selective and are good agonists at both sites"}, {"measurement": "agonism at the A1 site", "setting": "A1 surface receptors", "result": "non-selective and are good agonists at both sites"}, {"measurement": "anticonvulsant activity in reductions of amygdaloid-kindled seizures", "setting": "rats", "result": "slightly more anticonvulsant activity than R-PIA"}]}, {"compound": "CCNC(=O)C(C)Sc1nc(S)c2cnn(-c3ccccc3)c2n1", "note": "(stereo not drawn) [Compound 7, 6-α-N-Ethylcarbamoylethylthio-4-mercapto-1-phenylpyrazolo[3,4-d]pyrimidine]", "values": [{"measurement": "pIC50", "setting": "A2 receptor", "result": 6.27}, {"measurement": "pIC50", "setting": "A1 receptor", "result": 6.31}]}, {"compound": "CCC(Sc1nc(SC(CC)C(N)=O)c2cnn(-c3ccccc3)c2n1)C(N)=O", "note": "(stereo not drawn) [Compound 4, 4,6-bis-α-carbamoylpropylthio-1-phenylpyrazolo[3,4-d]pyrimidine]", "values": [{"measurement": "pIC50", "setting": "A1 receptor", "result": 6.97}, {"measurement": "potency of butanamide side chain versus propionamide moiety in FIG. 3", "setting": "A1 receptor; comparison in words", "result": "increased potency over the proprionamide moiety"}]}, {"compound": "Nc1ncnc2c1ncn2[C@@H]1O[C@H](CO)[C@@H](O)[C@H]1O", "note": "[adenosine]", "values": [{"measurement": "activity of adenosine in words", "setting": "[2]", "result": "profound hypotensive, antispasmodic, sedative and vasodilatory activity"}, {"measurement": "agonism at the A2 site", "setting": "A2 surface receptors", "result": "non-selective and are good agonists at both sites"}, {"measurement": "agonism at the A1 site", "setting": "A1 surface receptors", "result": "non-selective and are good agonists at both sites"}, {"measurement": "effects when given to animals", "setting": "animals; intraperitoneal, alone", "result": "minimal or no effects"}, {"measurement": "effects in the presence of an adenosine uptake inhibitor and/or adenosine deaminase inhibitor", "setting": "animals; with adenosine uptake inhibitor and/or adenosine deaminase inhibitor", "result": "can cause muscle relaxation and hypothermia"}, {"measurement": "relaxation of noradrenaline-contracted guinea pig aorta", "setting": "[3]", "result": "relaxed"}, {"measurement": "relaxation of coronary vascular smooth muscle", "setting": "[4]", "result": "causes relaxation"}]}, {"compound": "CCCCSc1cc(Nc2ccccc2)nc(SC(C)C(N)=O)n1", "note": "(centres unmarked) [Compound 1, (2-n-butylthio)-4-(N-phenyl)-6-propionamidyl thiopyrimidine]", "values": [{"measurement": "affinity for the A1 receptor", "setting": "A1 receptor; in words", "result": "moderate affinity"}]}, {"compound": "Cn1c(N)c2ncn([C@@H]3O[C@H](CO)[C@@H](O)[C@H]3O)c2nc1=O", "note": "[1-methylisoguanosine]", "values": [{"measurement": "interaction with extracellular adenosine receptors, A2 site", "setting": "A2 site", "result": "can interact with extracellular adenosine receptors"}, {"measurement": "cerebellar levels of cyclic GMP", "setting": "cerebellar cyclic GMP", "result": "decreases cerebellar levels of cyclic GMP"}, {"measurement": "degradation by adenosine deaminase", "setting": "adenosine deaminase", "result": "resistant to degradation by adenosine deaminase"}, {"measurement": "pKi", "setting": "benzodiazepine receptors; benzodiazepine receptors, read-out: Ki vs ^3 H-diazepam binding", "result": "~4.77"}, {"measurement": "potency at benzodiazepine receptors relative to inosine and hypoxanthine", "setting": "benzodiazepine receptors; comparison in words", "result": "several hundred fold more potent than inosine and hypoxanthine"}, {"measurement": "muscle relaxation and hypothermia", "setting": "mice", "result": "potent muscle relaxation and hypothermine"}, {"measurement": "interaction with extracellular adenosine receptors, A1 site", "setting": "A1 site", "result": "can interact with extracellular adenosine receptors"}, {"measurement": "polysynaptic responses in the mouse spinal cord", "setting": "mouse spinal cord", "result": "blocked polysynaptic responses"}, {"measurement": "effect on blood pressure and heart rate", "setting": "[5]", "result": "reduced blood pressure and heart rate"}, {"measurement": "substrate for, or inhibitor of, the adenosine uptake system", "setting": "[6]", "result": "poor substrate for, or inhibitor of, the adenosine uptake system"}]}, {"compound": "Cn1c(=O)c2c(ncn2C)n(C)c1=O", "note": "[caffeine]", "values": [{"measurement": "central stimulant action", "setting": "[1]", "result": "central stimulant action"}]}, {"compound": "CCNC(=O)C(C)Sc1nc(N)c2cnn(-c3ccccc3)c2n1", "note": "(centres unmarked) [Compound 8]", "values": [{"measurement": "pIC50", "setting": "A1 receptor", "result": 7.77}]}, {"compound": "CN1C(=O)CN=C(c2ccccc2)c2cc(Cl)ccc21", "note": "[diazepam]", "values": [{"measurement": "cerebellar levels of cyclic GMP", "setting": "cerebellar cyclic GMP", "result": "decreases cerebellar levels of cyclic GMP"}, {"measurement": "pKd", "setting": "benzodiazepine receptors; radioligand, read-out: Kd of ^3 H-diazepam binding", "result": 7.96}]}, {"compound": "CCC(Sc1nc2c(cnn2-c2ccccc2)c(=S)[nH]1)C(N)=O", "note": "(stereo not drawn) [Compound 5, 6-α-carbamoylpropylthio-4-mercapto-1-phenylpyrazolo[3,4-d]pyrimidine]", "values": [{"measurement": "pIC50", "setting": "A1 receptor", "result": 6.31}]}]}
